Laboratory results: US20230338453A1, “PROCESS FOR PRODUCING A HYDROLYSATE OF SCUTELLARIA ROOT, WHICH IS ENRICHED AND STANDARDIZED WITH FLAVONOIDS OF INTEREST, THE HYDROLYSATE OBTAINED BY SUCH A PROCESS, AND COSMETIC AND DERMOCOSMETIC APPLICATIONS OF SUCH A HYDROLYSATE” (EXSYMOL, priority 2020, published 2023)

System: pro-inflammatory cytokine IL-6
Assay: Test 1: IL-6 secretion by stress-induced senescent fibroblasts (ELISA)
Format: cell-based, human
Description: Experimentally, the test was carried out on primary human fibroblasts (abbreviation “NHDF” for “Normal Human Dermal Fibroblasts”) isolated from breast plastic surgery from a patient. These NHDFs were cultured in a complete “DMEM” culture medium (with 4.5 g/l of glucose and 10% of fetal calf serum (FCS)), then maintained in an atmosphere at 37° C. and 10% of CO2. On D-2, the fibroblasts were seeded in 6-well plates at a rate of 1.10^4 cells/cm^2. On D0, the fibroblasts were subjected to stress inducing premature senescence ([…] hydrogen peroxide, H2O2, for 2 hours), then incubated at 37° C. and 10% CO2 for 72 hours in order to leave senescence settle. On D+3, these senescent fibroblasts induced by such stress (abbreviation “SIPS-fibro” for “Stress-Induced Premature Senescent-fibroblasts”) were incubated for 24 hours in the presence of different weight ratios of wogonin to baicalein (abbreviation “W/B”) of synthetic origin. On D+4, the culture supernatants were harvested in order to perform an ELISA assay for the pro-inflammatory cytokine IL-6 (“R&DSystem kit, ref. D6050”). The results obtained were then normalized with respect to the quantity of cells per condition and subjected to statistical analysis in triplicate. The results are collated in Table 1 below, in particular expressed as % inhibition of IL-6 secretion relative to the senescent control.

SMILES: COc1c(O)cc(O)c2c(=O)cc(-c3ccccc3)oc12 [wogonine, 5,7-dihydroxy-8-methoxyflavone]
- % inhibition of IL-6 secretion (relative to the senescent control, senescent NHDF, 24 hours): −10%
- Amount of IL-6 secreted (senescent NHDF (H2O2 stress), incubated 24 hours with compound, ELISA): 9.1 ng/10^6 cells
